# Laboratory results: PubChem BioAssay (NCI)
# Where “and” joins values, the source holds several entries; their conditions need not be identical. Identical values can stand only once.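 These data come from cells grown in 96-well plates and exposed to compound for 48 hours at five concentrations. At the GI50, growth is halved. The concentration for full growth arrest is given as TGI.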
# Experiments:
# Assay in all cases: growth of human tumour cells (NCI), 48 h
# [1] = system: 786-0 renal
# [2] = system: CAKI-1 renal
# [3] = system: DU-145 prostate
# [4] = system: HCT-116 colon
# [5] = system: K-562 leukemia
# [6] = system: MCF7 breast
# [7] = system: RPMI-8226 leukemia
# [8] = system: RXF 393 renal
# [9] = system: SNB-19 CNS
# [10] = system: SNB-75 CNS
Structure (SMILES),GI50 [1],TGI [1],GI50 [2],TGI [2],GI50 [3],TGI [3],GI50 [4],TGI [4],GI50 [5],TGI [5],GI50 [6],TGI [6],GI50 [7],TGI [7],GI50 [8],TGI [8],GI50 [9],TGI [9],GI50 [10],TGI [10]
CSC1=Nc2c(c(C)c(C)n2COC(CO)CO)C2=NC(=O)CN12,> 100 µM,> 100 µM,> 100 µM,> 100 µM,> 100 µM,> 100 µM,> 100 µM,> 100 µM,> 100 µM,> 100 µM,> 100 µM,> 100 µM,> 100 µM,> 100 µM,> 100 µM,> 100 µM,> 100 µM,> 100 µM,63 µM,> 100 µM
CCN1C(=S)N(CC)C2C1NC(=S)N2/N=C/C=C/c1ccccc1OC (stereo not given),0.67 µM,> 52.3 µM,0.101 µM,45.9 µM,0.354 µM,25.3 µM,0.326 µM,> 36.3 µM,0.129 µM,> 72.1 µM,0.171 µM,> 100 µM,0.377 µM,7.08 µM,0.092 µM,0.498 µM,0.48 µM,> 100 µM,0.0935 µM,0.606 µM
O=C1/C(=C\c2ccccc2)CN(C(=O)CCN2CCCCC2)C/C1=C/c1ccccc1,,4.7 µM,,3.74 µM,,17.9 µM,,0.709 µM,,0.799 µM,,1.86 µM,,0.244 µM,,3.53 µM,,4.57 µM,,6.79 µM
Cc1nn(-c2ccc(Cl)cc2)c2ncnc(N/N=C/c3ccccc3O)c12,0.768 µM and 0.509 µM,7.55 µM and 5.84 µM,0.331 µM and 0.625 µM,3.03 µM and 8.82 µM,0.488 µM and 0.472 µM,16.4 µM and > 100 µM,0.373 µM and 0.701 µM,20.7 µM and > 43.3 µM,1.01 µM and 0.435 µM,> 100 µM,0.887 µM and 0.399 µM,> 100 µM,0.699 µM and 0.714 µM,> 100 µM,1.97 µM and 0.683 µM,21.7 µM and 11.3 µM,1.08 µM and 0.604 µM,> 80.4 µM,4.03 µM and 0.501 µM,37.9 µM and 4.49 µM
CC(=O)ON1CCCC(P(=O)(OCOC(=O)C(C)(C)C)OCOC(=O)C(C)(C)C)C1=O (stereo not given),0.331 µM,> 23.4 µM,0.712 µM,20.4 µM,1.47 µM,17.4 µM,0.249 µM,4.88 µM,0.303 µM,> 87.2 µM,0.4 µM,2 µM,0.407 µM,1.89 µM,0.308 µM,1.19 µM,0.583 µM,4.74 µM,3.31 µM,18.6 µM
CC(C)(CO)CNC(=O)c1ccc2[nH]c(O)c(N=Nc3ccc(S(N)(=O)=O)cc3)c2c1,> 25 µM,> 25 µM,> 25 µM,> 25 µM,> 25 µM,> 25 µM,> 25 µM,> 25 µM,> 25 µM,> 25 µM,> 25 µM,> 25 µM,> 25 µM,> 25 µM,> 25 µM,> 25 µM,> 25 µM,> 25 µM,> 25 µM,> 25 µM
O=C(/C=C/C12c3ccccc3C(c3ccccc31)C1C(=O)NC(=O)C12)c1ccccn1 (stereo not given),1.74 µM,4 µM,1.66 µM,4.38 µM,1.02 µM,2.21 µM,1.42 µM,3.14 µM,1.37 µM,18.1 µM,0.562 µM,2.43 µM,1.22 µM,4.3 µM,1.61 µM,3.12 µM,1.53 µM,3.22 µM,1.67 µM,4.34 µM
N#CC1c2ccccc2C=CN1C(=O)CCCl (stereo not given),14 µM,28 µM,8.38 µM,22.7 µM,9.04 µM,21.9 µM,3.59 µM,11.3 µM,4.03 µM,60 µM,2.6 µM,12.5 µM,2.66 µM,9.25 µM,11.8 µM,25.9 µM,20.1 µM,52.9 µM,10.6 µM,25.3 µM
COc1ccc2c(N)ncc(C#Cc3cc(C(=O)Nc4ccc(CN5CCN(C)CC5)c(C(F)(F)F)c4)cnc3C)c2c1,0.673 µM,1.25 µM,1.36 µM,8.62 µM,0.419 µM,0.874 µM,0.483 µM,1.05 µM,0.00868 µM,1.02 µM,0.745 µM,2.63 µM,0.775 µM,2.25 µM,0.502 µM,1.11 µM,0.933 µM,2.38 µM,0.729 µM,4.38 µM
COc1cc2c(N3CCN(C(=O)Nc4ccc(OC(C)C)cc4)CC3)ncnc2cc1OCCCN1CCCCC1,17.6 µM,37.8 µM,17.4 µM,> 54.9 µM,22 µM,> 85.3 µM,14 µM,57.3 µM,4.98 µM,> 100 µM,13.4 µM,36.6 µM,11.7 µM,> 54.1 µM,8.61 µM,23.6 µM,22.2 µM,> 100 µM,3.29 µM,26.4 µM
c1ccc(-c2[nH]ncc2-c2ccnc(-c3ccc(OCCn4ccnc4)cc3)c2)nc1,> 25 µM,> 25 µM,> 25 µM,> 25 µM,> 25 µM,> 25 µM,> 25 µM,> 25 µM,6.44 µM,> 25 µM,> 25 µM,> 25 µM,> 20.6 µM,> 25 µM,> 25 µM,> 25 µM,> 25 µM,> 25 µM,> 25 µM,> 25 µM
CC1=C(C(=O)Nc2ccccc2)C(c2ccc(N(C)C)cc2)C(C(=O)Nc2ccccc2)=C(C)N1,,> 100 µM,,> 100 µM,,> 91.7 µM,,> 57.3 µM,,> 69.1 µM,,> 100 µM,,72.9 µM,,> 100 µM,,> 100 µM,,> 100 µM
